e = 2'-O-(2-methoxyethyl) (MOE); d = 2'-deoxy (DNA)
How the values were obtained:
rat p38α mRNA = assay: Rat p38α mRNA levels in NR-8383 cells, quantitative real-time PCR; format: cell-based; conditions: 300 nM oligonucleotide with FuGENE 6, 24 hours, mRNA by quantitative real-time PCR, average of two experiments
Excerpt: (§1) Quantitation of p38α mRNA levels was accomplished by real-time quantitative PCR using the ABI PRISM™ 7600, 7700, or 7900 Sequence Detection System (PE-Applied Biosystems, Foster City, Calif.) according to manufacturer's instructions. This is a closed-tube, non-gel-based, fluorescence detection system which allows high-throughput quantitation of polymerase chain reaction (PCR) products in real-time. As opposed to standard PCR in which amplification products are quantitated after the PCR is completed, products in real-time quantitative PCR are quantitated as they accumulate. This is accomplished by including in the PCR reaction an oligonucleotide probe that anneals specifically between the forward and reverse PCR primers, and contains two fluorescent dyes. A reporter dye (e.g., FAM or JOE, obtained from either PE-Applied Biosystems, Foster City, Calif., Operon Technologies Inc., Alameda, Calif. or Integrated DNA Technologies Inc., Coralville, Iowa) is attached to the 5′ end of the probe and a quencher dye (e.g., TAMRA, obtained from either PE-Applied Biosystems, Foster City, Calif., Operon Technologies Inc., Alameda, Calif. or Integrated DNA Technologies Inc., Coralville, Iowa) is attached to the 3′ end of the probe. When the probe and dyes are intact, reporter dye emission is quenched by the proximity of the 3′ quencher dye. During amplification, annealing of the probe to the target sequence creates a substrate that can be cleaved by the 5′-exonuclease activity of Taq polymerase. […] With each cycle, additional reporter dye molecules are cleaved from their respective probes, and the fluorescence intensity is monitored at regular intervals by laser optics built into the ABI PRISM™ Sequence Detection System. In each assay, a series of parallel reactions containing serial dilutions of mRNA from untreated control samples generates a standard curve that is used to quantitate the percent inhibition after antisense oligonucleotide treatment of test samples.
(§2) Prior to quantitative PCR analysis, primer-probe sets specific to the target gene being measured are evaluated for their ability to be “multiplexed” with a GAPDH amplification reaction. In multiplexing, both the target gene and the internal standard gene GAPDH are amplified concurrently in a single sample. In this analysis, mRNA isolated from untreated cells is serially diluted. Each dilution is amplified in the presence of primer-probe sets specific for GAPDH only, target gene only (“single-plexing”), or both (multiplexing). Following PCR amplification, standard curves of GAPDH and target mRNA signal as a function of dilution are generated from both the single-plexed and multiplexed samples. If both the slope and correlation coefficient of the GAPDH and target signals generated from the multiplexed samples fall within 10% of their corresponding values generated from the single-plexed samples, the primer-probe set specific for that target is deemed multiplexable. Other methods of PCR are also known in the art.
(§3) PCR reagents were obtained from Invitrogen Corporation, (Carlsbad, Calif.). […] The RT reaction was carried out by incubation for 30 minutes at 48° C. Following a 10 minute incubation at 95° C. to activate the PLATINUM® Taq, 40 cycles of a two-step PCR protocol were carried out: 95° C. for 15 seconds (denaturation) followed by 60° C. for 1.5 minutes (annealing/extension).
(§4) Gene target quantities obtained by real time RT-PCR are normalized using either the expression level of GAPDH, a gene whose expression is constant, or by quantifying total RNA using RiboGreen™ (Molecular Probes, Inc. Eugene, Oreg.). GAPDH expression is quantified by real time RT-PCR, by being run simultaneously with the target, multiplexing, or separately. Total RNA is quantified using RiboGreen™ RNA quantification reagent (Molecular Probes, Inc. Eugene, Oreg.). Methods of RNA quantification by RiboGreen™ are taught in Jones, L. J., et al, (Analytical Biochemistry, 1998, 265, 368-374). […]

mouse p38α mRNA = assay: Mouse p38α mRNA levels in bEND.3 cells, quantitative real-time PCR; format: cell-based; parameters: % Inhib. mouse p38α: concentration or dose not given beside the values; conditions: bEND.3 cells, mRNA by quantitative real-time PCR, average of two experiments
Excerpt: as §1, §2, §3, §4

Substance	% Inhib. rat p38α (rat p38α mRNA)	% Inhib. mouse p38α (mouse p38α mRNA)
320162 (antisense CGCATTATCTGCTGAAGCTG; sugars from the 5' end e5 d10 e5, all phosphorothioate, methylation of C not given here) [compound 320162]	62%	92%
320149 (antisense AAGGAGCTCCTGGCTTCAGG; sugars from the 5' end e5 d10 e5, all phosphorothioate, methylation of C not given here) [compound 320149]	25%	74%
320118 (antisense CAGACTCTGAGGAGATTTTC; sugars from the 5' end e5 d10 e5, all phosphorothioate, methylation of C not given here) [compound 320118]	69%	47%
320122 (antisense ATTTGCGAAGTTCATCTTCG; sugars from the 5' end e5 d10 e5, all phosphorothioate, methylation of C not given here) [compound 320122]	48%	73%
320151 (antisense GAAGGAACCACACTCTCTAA; sugars from the 5' end e5 d10 e5, all phosphorothioate, methylation of C not given here) [compound 320151]	47%	90%
320143 (antisense AGGCACAAACAGACTGACAG; sugars from the 5' end e5 d10 e5, all phosphorothioate, methylation of C not given here) [compound 320143]	54%	88%
320113 (antisense ATCAATATGGTCTGTACCAG; sugars from the 5' end e5 d10 e5, all phosphorothioate, methylation of C not given here) [compound 320113]	9%	35%
320106 (antisense AACGGTCTCGACAGCTTCTT; sugars from the 5' end e5 d10 e5, all phosphorothioate, methylation of C not given here) [compound 320106]	67%	91%
320109 (antisense GCCCCCATGAGATGGGTCAC; sugars from the 5' end e5 d10 e5, all phosphorothioate, methylation of C not given here) [compound 320109]	34%	69%
320160 (antisense GTTAATATGGTCTGTACCAG; sugars from the 5' end e5 d10 e5, all phosphorothioate, methylation of C not given here) [compound 320160]	43%	53%
320137 (antisense CACACACATCCCTAAGGAGA; sugars from the 5' end e5 d10 e5, all phosphorothioate, methylation of C not given here) [compound 320137]	44%	80%
320172 (antisense ACTCTCGCGAGAACAGCTCC; sugars from the 5' end e5 d10 e5, all phosphorothioate, methylation of C not given here) [compound 320172]	0%	39%
320108 (antisense AGATGGGTCACCAGGTACAC; sugars from the 5' end e5 d10 e5, all phosphorothioate, methylation of C not given here) [compound 320108]	57%	61%
320126 (antisense AGGCATGCGCAAGAGCTTGG; sugars from the 5' end e5 d10 e5, all phosphorothioate, methylation of C not given here) [compound 320126]	69%	90%
320174 (antisense CCCGCTTGGGCTCCAGTGGC; sugars from the 5' end e5 d10 e5, all phosphorothioate, methylation of C not given here) [compound 320174]	29%	62%
320171 (antisense TGGAAAACTGTTTTGTCAAA; sugars from the 5' end e5 d10 e5, all phosphorothioate, methylation of C not given here) [compound 320171]	2%	35%
320173 (antisense TCCCACAGGCAGCGGCCGGG; sugars from the 5' end e5 d10 e5, all phosphorothioate, methylation of C not given here) [compound 320173]	250%	160%
320140 (antisense GGGATAGCCTCAGACCTGAA; sugars from the 5' end e5 d10 e5, all phosphorothioate, methylation of C not given here) [compound 320140]	37%	61%
320136 (antisense AGCAGGCAGACTGCCAAGGA; sugars from the 5' end e5 d10 e5, all phosphorothioate, methylation of C not given here) [compound 320136]	34%	83%
320163 (antisense TGTTAATGAGATAAGCAGGG; sugars from the 5' end e5 d10 e5, all phosphorothioate, methylation of C not given here) [compound 320163]	40%	0%
320130 (antisense AGGACTCCATTTCTTCTTGG; sugars from the 5' end e5 d10 e5, all phosphorothioate, methylation of C not given here) [compound 320130]	61%	81%
320158 (antisense CCTTCTGGGCTCCAAATGAT; sugars from the 5' end e5 d10 e5, all phosphorothioate, methylation of C not given here) [compound 320158]	71%	91%
320161 (antisense GCTGAAGCTGGTTAATATGG; sugars from the 5' end e5 d10 e5, all phosphorothioate, methylation of C not given here) [compound 320161]	66%	80%
320114 (antisense CTTAAAATGAGCTTCAACTG; sugars from the 5' end e5 d10 e5, all phosphorothioate, methylation of C not given here) [compound 320114]	60%	71%
320134 (antisense AACAAGAGGCACTTGAATGG; sugars from the 5' end e5 d10 e5, all phosphorothioate, methylation of C not given here) [compound 320134]	74%	85%
320116 (antisense TCAGAAGCTCAGCCCCTGGG; sugars from the 5' end e5 d10 e5, all phosphorothioate, methylation of C not given here) [compound 320116]	73%	95%

Source: patent publication US20040171566A1, “Antisense modulation of p38 mitogen activated protein kinase expression” (priority 1999, published 2004)
